In US11945790B2 (ImmunoMolecular Therapeutics, Inc., priority 2020, dated 2024):
pEC50: −log10 of the molar value.

Molecular target: HLA-DQ2 (Homo sapiens, UniProt P01909+P01920)
Assay: Inhibition of IL-2 secretion by TCR transductants stimulated by α-gliadin peptides presented by HLA-DQ2 expressing K562 cells (ELISA)
Type: cell-based
Conditions: tested as trans racemate unless otherwise noted, lines naming several Examples = stereoisomer mixture of those Examples; for % Inh at 200 uM: inhibition of IL-2 secretion at 200 uM
Procedure: Three commercially available analogues of the DQ2 binding molecules of the invention were tested for their ability to inhibit stimulation of T cell receptor (TCR) transductants in the presence of HLA-DQ2 expressing cells presenting known α-gliadin epitopes.
Using a previously published in vitro assay (Ostrov D, et al. Methyldopa blocks MHC class II binding to disease specific antigens in autoimmune diabetes. J Clin Invest. 2018:128 (5)) the ability of these DQ2 binding analogues to inhibit interleukin-2 (IL-2) secretion by TCR transductants stimulated by α-gliadin peptides presented by HLA-DQ2 was determined. Individual TCR transductants (recognizing a I-gliadin or a II-gliadin) were cultured with a gliadin peptide plus the small molecule analogues in the presence of HLA-DQ2 expressing K562 cells serving as antigen presenting cells. TCR transductants cultured with no gliadin peptide served as the negative control, and incubation with an anti-CD3 antibody (eBioscience; clone 2C11) served as a positive control for the TCR transductant. Secreted IL-2 in the culture supernatant was measured using a highly sensitive enzyme-linked immunosorbent assay (ELISA). […] Assays for effects on cell viability and for specificity, assayed in the absence of gliadin peptide or in the presence of a stimulating anti-CD3 antibody, were performed. Unless otherwise noted, the stereochemistry shown below represents the relative configuration. Further, unless otherwise noted, compounds were tested as the trans racemate.

Sequence of HLA-DQ2 (P01920 33-261 limits assumed, other chains not shown): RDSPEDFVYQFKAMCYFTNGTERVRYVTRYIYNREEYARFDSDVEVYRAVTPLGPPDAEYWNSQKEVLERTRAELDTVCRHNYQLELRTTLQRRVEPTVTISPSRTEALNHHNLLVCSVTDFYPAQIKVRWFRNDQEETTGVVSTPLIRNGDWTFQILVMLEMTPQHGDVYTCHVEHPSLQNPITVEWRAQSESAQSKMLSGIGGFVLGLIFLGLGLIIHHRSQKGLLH

% Inh at 200 uM | pEC50 (inhibition of IL-2 secretion, dose-response) | SMILES
A (A=≥75%) | – | O=C(CSc1ccccc1F)N1CCN(C(=O)[C@@H]2C[C@H]2c2ccccc2)CC1 (relative stereo) [Example 58, 2-((2-Fluorophenyl)thio)-1-(4-(trans-2-phenylcyclopropane-1-carbonyl)piperazin-1-yl) ethan-1-one]
A (A=≥75%) | – | O=C(CSc1ccc(Cl)cc1F)N1CCN(C(=O)[C@@H]2C[C@H]2c2ccccc2)CC1 (relative stereo) [Example 103, 2-((4-Chloro-2-fluorophenyl)thio)-1-(4-(trans-2-phenylcyclo-propane-1-carbonyl)piperazin-1-yl) ethan-1-one]
A (A=≥75%) | – | O=C(COc1ccc(F)cc1)N1CCN(C(=O)C2CC2c2ccc3c(c2)OCO3)CC1 (stereo not shown) [Example 6]
B (B=50-74%) | – | O=C(COc1ccccc1O)N1CCN(C(=O)[C@@H]2C[C@H]2c2ccccc2)CC1 [Example 105]
C (C=25-49%) | – | O=C(COc1ccc(O)cc1)N1CCN(C(=O)[C@@H]2C[C@H]2c2ccccc2)CC1 [Example 95]
B (B=50-74%) | – | Cc1ccc(C)c(SCC(=O)N2CCN(C(=O)[C@@H]3C[C@H]3c3ccccc3)CC2)c1 (relative stereo) [Example 55, 2-((2,5-Dimethylphenyl)thio)-1-(4-(trans-2-phenylcyclo-propanecarbonyl)piperazin-1-yl)-ethanone]
B (B=50-74%) | – | O=C(O)c1ccc(SCC(=O)N2CCN(C(=O)[C@@H]3C[C@H]3c3ccccc3)CC2)cc1 [Example 104]
C (C=25-49%) | – | O=CNc1cccc(OCC(=O)N2CCN(C(=O)[C@@H]3C[C@H]3c3ccccc3)CC2)c1 [Example 94]
A (A=≥75%) | – | Cc1ccc(SCC(=O)N2CCN(C(=O)[C@@H]3C[C@H]3c3ccccc3)CC2)c(F)c1 (relative stereo) [Example 71, 2-((2-Fluoro-4-methylphenyl)thio)-1-(4-(trans-2-phenylcyclopropane-1-carbonyl)piperazin-1-yl) ethan-1-one]
D (D=0-24%) | – | O=C(O)CCSCC(=O)N1CCN(C(=O)[C@@H]2C[C@H]2c2ccccc2)CC1 [Example 112]
A (A=≥75%) | – | O=C(CSC1CCCCCC1)N1CCN(C(=O)[C@@H]2C[C@H]2c2ccccc2)CC1 (relative stereo) [Example 69, 2-(Cycloheptylthio)-1-(4-(trans-2-phenylcyclopropane-1-carbonyl)piperazin-1-yl) ethan-1-one]
B (B=50-74%) | – | O=C(CSc1ccccc1Cl)N1CCN(C(=O)[C@@H]2C[C@H]2c2ccccc2)CC1 (relative stereo) [Example 60, 2-((2-Chlorophenyl)thio)-1-(4-(trans-2-phenylcyclopropane-1-carbonyl)piperazin-1-yl) ethan-1-one]
C (C=25-49%) | – | O=C(O)c1ccccc1OCC(=O)N1CCN(C(=O)[C@@H]2C[C@H]2c2ccccc2)CC1 [Example 97]
A (A=≥75%) | – | O=C(Cc1cccs1)N1CCN(C(=O)C2CC2c2ccc3c(c2)OCO3)CC1 (stereo not shown) [Example 24]
C (C=25-49%) | – | O=C(CSC1CCCC1)N1CCN(C(=O)[C@@H]2C[C@H]2c2ccc(F)cc2)CC1 [Example 68]
C (C=25-49%) | – | Cc1nnsc1C(=O)N1CCN(C(=O)C2CC2c2ccc3c(c2)OCO3)CC1 (stereo not shown) [Example 9]
B (B=50-74%) | – | COc1ccccc1SCC(=O)N1CCN(C(=O)[C@@H]2C[C@H]2c2ccccc2)CC1 [Example 63]
A (A=≥75%) | 3.70 to 4.00 | COC(=O)c1ccc(OCC(=O)N2CCN(C(=O)[C@@H]3C[C@H]3c3ccccc3)CC2)cc1 (relative stereo) [Example 106, Methyl 4-(2-oxo-2-(4-(trans-2-phenylcyclopropanecarbonyl)piperazin-1-yl)ethoxy) benzoate]
B (B=50-74%) | – | O=C(COc1cccc(F)c1)N1CCN(C(=O)[C@@H]2C[C@H]2c2ccccc2)CC1 [Example 99]
B (B=50-74%) | – | O=C(C[S+]([O-])C1CCCC1)N1CCN(C(=O)C2C[C@@H]2c2ccccc2)CC1 (stereo partly shown) [Example 80]
B (B=50-74%) | – | Cc1cc(F)ccc1SCC(=O)N1CCN(C(=O)[C@@H]2C[C@H]2c2ccccc2)CC1 (relative stereo) [Example 61, 2-((4-Fluoro-2-methylphenyl)thio)-1-(4-(trans-2-phenylcyclopropanecarbonyl)-piperazin-1-yl)ethanone]
D (D=0-24%) | – | O=C(O)CCCSCC(=O)N1CCN(C(=O)[C@@H]2C[C@H]2c2ccccc2)CC1 [Example 114]

% Inh at 200 uM | pEC50 (inhibition of IL-2 secretion, dose-response) | SMILES
A (A=≥75%) | – | O=C(COC1CCCCCC1)N1CCN(C(=O)[C@@H]2C[C@H]2c2ccccc2)CC1 (relative stereo) [Example 52, 2-(Cycloheptyloxy)-1-(4-(trans-2-phenylcyclopropane-carbonyl)piperazin-1-yl)ethanone]
C (C=25-49%) | – | NC(=O)c1ccc(OCC(=O)N2CCN(C(=O)[C@@H]3C[C@H]3c3ccccc3)CC2)cc1 [Example 89]
A (A=≥75%) | – | O=C(CSC1CCCC1)N1CCN(C(=O)[C@H]2C[C@@H]2c2ccccc2Cl)CC1 [Example 36]
C (C=25-49%) | – | Cc1ccccc1SCC(=O)N1CCN(C(=O)[C@@H]2C[C@H]2c2ccccc2)CC1 (relative stereo) [Example 50, 1-(4-(Trans-2-phenylcyclopropanecarbonyl)piperazin-1-yl)-2-(o-tolylthio)ethanone]
C (C=25-49%) | – | CC(C)OCC(=O)N1CCN(C(=O)[C@@H]2C[C@H]2c2ccccc2)CC1 (relative stereo) [Example 44, 2-Isopropoxy-1-(4-(trans-2-phenylcyclopropanecarbonyl)piperazin-1-yl) ethanone]
B (B=50-74%) | – | NC(=O)c1ccccc1OCC(=O)N1CCN(C(=O)[C@@H]2C[C@H]2c2ccccc2)CC1 [Example 90]
C (C=25-49%) | – | NC(=O)c1ccc(SCC(=O)N2CCN(C(=O)[C@@H]3C[C@H]3c3ccccc3)CC2)cc1 (relative stereo) [Example 85, 4-((2-Oxo-2-(4-(trans-2-phenylcyclopropanecarbonyl)piperazin-1-yl)ethyl)thio)benzamide]
B (B=50-74%) | – | O=C(c1ccccc1F)N1CCN(C(=O)C2CC2c2ccc3c(c2)OCO3)CC1 (stereo not shown) [Example 22]
A (A=≥75%) | – | Cc1ccc(SCC(=O)N2CCN(C(=O)[C@@H]3C[C@H]3c3ccccc3)CC2)c(Cl)c1 (relative stereo) [Example 84, 2-((2-Chloro-4-methylphenyl)thio)-1-(4-(trans-2-phenylcyclo-propanecarbonyl)piperazin-1-yl) ethanone]
A (A=≥75%) | – | COC(=O)c1cccc(OCC(=O)N2CCN(C(=O)[C@@H]3C[C@H]3c3ccccc3)CC2)c1 [Example 101]
D (D=0-24%) | – | O=C(O)CCOCC(=O)N1CCN(C(=O)[C@@H]2C[C@H]2c2ccccc2)CC1 [Example 110]
B (B=50-74%) | – | O=C(COc1ccccc1F)N1CCN(C(=O)[C@@H]2C[C@H]2c2ccccc2)CC1 [Example 98]
A (A=≥75%) | – | O=C(CSC1CCCC1)N1CCN(C(=O)[C@H]2C[C@@H]2c2ccc(F)c(F)c2)CC1 [Example 35]
C (C=25-49%) | – | CSc1ccccc1C(=O)N1CCN(C(=O)C2CC2c2ccc3c(c2)OCO3)CC1 (stereo not shown) [Example 19]
C (C=25-49%) | – | O=C(COC1CC1)N1CCN(C(=O)[C@@H]2C[C@H]2c2ccccc2)CC1 (racemic) [Example 38, 2-Cyclopropoxy-1-(4-(trans-2-phenylcyclopropanecarbonyl)piperazin-1-yl) ethanone]
B (B=50-74%) | – | Cc1ccc(SCC(=O)N2CCN(C(=O)[C@@H]3C[C@H]3c3ccccc3)CC2)cc1 [Example 53]
A (A=≥75%) | – | O=C(CSC1CCCC1)N1CCN(C(=O)[C@H]2C[C@@H]2c2ccccc2)CC1 [Example 13, 2-(Cyclopentylthio)-1-(4-((1S,2S)-2-phenylcyclopropanecarbonyl)piperazin-1-yl)ethanone]
C (C=25-49%) | – | CC(C)SCC(=O)N1CCN(C(=O)[C@@H]2C[C@H]2c2ccccc2)CC1 [Example 45]
D (D=0-24%) | – | O=C(CN1CCCC1=O)N1CCN(C(=O)[C@@H]2C[C@H]2c2ccccc2)CC1 [Example 115]
A (A=≥75%) | – | Cc1cc(C(=O)N2CCN(C(=O)C3CC3c3ccc4c(c3)OCO4)CC2)c(C)o1 (stereo not shown) [Example 8]
A (A=≥75%) | – | O=C(COc1ccc(F)cc1)N1CCN(C(=O)[C@@H]2C[C@H]2c2ccccc2)CC1 [Example 108]
C (C=25-49%) | – | O=C(CSc1ccc(F)cc1Cl)N1CCN(C(=O)[C@@H]2C[C@H]2c2ccccc2)CC1 (relative stereo) [Example 59, 2-((2-Chloro-4-fluorophenyl)thio)-1-(4-(trans-2-phenylcyclo-propanecarbonyl)piperazin-1-yl)ethanone]

SMILES | % Inh at 200 uM | pEC50 (inhibition of IL-2 secretion, dose-response)
O=C(COC1CCC1)N1CCN(C(=O)[C@@H]2C[C@H]2c2ccccc2)CC1 (racemic) [Example 39, 2-Cyclobutoxy-1-(4-(trans-2-phenylcyclopropanecarbonyl)piperazin-1-yl) ethanone] | B (B=50-74%) | –
